Laboratory results taken from US20210186905A1, “ENHANCING T-CELL FUNCTION AND TREATING A T-CELL DYSFUNCTIONAL DISORDER WITH A COMBINATION OF AN LSD INHIBITOR AND A PD-1 BINDING ANTAGONIST” (EpiAxis Therapeutic Pty Ltd, priority 2017, published 2021).
Where a name gives a salt, the structure may show the parent alone.

What was measured:
Assay type in all cases: in vivo, mouse
CD133, ALDH1A and ABCB5 = test: Immunofluorescence of cancer cells from primary tumor micro-environment, chemo-resistant stem-like signature panel; settings: cancer cells from primary TME; % change relative to vehicle control
Description: FIG. 2 is a graphical and photographic representation showing the efficacy of dual phenelzine sulfate (phenelzine) and anti-PD1 antibody (PD1) therapy on circulating tumor cells (CTCs) and cancer stem cells (CSC) as well as tumor burden. A. Statistics of tumor volumes on day 15 post-treatment. A Mann-Whitney non-parametric t-test was used to compare control vs other groups (*p<0.02, **p<0.008). Group A=Control, Group C: PD1 (10 mg/kg), Group D: Phenelzine (40 mg/kg), Group F: PD1+Phenelzine. Illustration of the treatment protocol is also shown. […] Representative images for each dataset are shown. […] C. […] (a) Representative images for each dataset are shown. (b) Graph represents the TCFI values for CD133 TNFI for ALDH1A and TFI for ABCB5 measured using ImageJ to select the nucleus/cytoplasm minus background (n>20 individual cells, Group A=Control, Group C: PD1 (10 mg/kg), Group D: Phenelzine (40 mg/kg), Group F: PD1+Phenelzine).
FIG. 11 is a photographic and graphical representation showing triple therapy efficacy on CTC/CSC and tumor burden. A. Statistics of tumor volumes on day 15 post-treatment. […] (b) Graph represents the TCFI values for CD133 TNFI for ALDH1A and TFI for ABCB5 measured using ImageJ to select the nucleus/cytoplasm minus background (n>20 individual cells, Group A=Control, Group B: Abraxane (30 mg/kg), Group C: anti-PD1 (10 mg/kg), Group D: Phenelzine (40 mg/kg), Group E: Abraxane+PD1, Group F: PD1+Phenelzine, Group G: Abraxane+Phenelzine, Group H: Triple Therapy).
Next, the cancer cells were assessed for expression of a chemo-resistant, stem-like biomarker signature biomarker panel (CD133, ALDH1A and ABCB5).
A total of 2×10^5 cells were injected per mouse into mammary gland in 50 μL of phosphate buffered saline (PBS). […] Tumors were measured using calipers and the tumor volumes (mm3) were calculated using the formula (length×width2)/2. ? arvested cells from primary tumors where then cytospun ? -treated with poly-1-lysine and fixed then stored in PBS for IFA Microscopy Analysis. […]

CD4+/CD8+ T-cells = test: Flow cytometry of T-cell populations (naive, effector and central memory) in 4T1 mice
Description: FIG. 5 is a graphical representation showing that dual epigenetic-immunotherapy re-educates and re-programs the T-cell repertoire. A. Cells stimulated with PMA/ionomycin for 4 hours in the presence of Brefeldin A. Cells were surfaced stained with CD45, CD3, CD4, CD8, CD44, CD62L (for naïve, effector and central memory), CD25 and FoxP3 (for Tregs) and analyzed via Flow cytometry. A Mann-Whitney non-parametric t-test was used to compare control vs other groups (*p<0.05, n=2-5). […] Representative images for each dataset are shown. TNFI values for EOMES, TBET and Ki67 measured using Image) to select the nucleus minus background. Graphs represent the % change of expression relative to control group for CD8^+ T-cells. (n>20 individual cells, Group A=Control, Group C: PD1 (10 mg/kg), Group D: Phenelzine (40 mg/kg), Group F: PD1+Phenelzine). C. Cells stimulated with PMA/ionomycin for 4 hours in the presence of Brefeldin A. Cell were surfaced stained with CD45, CD3, CD4, CD8 and intracellular staining of IFN-γ, IL-2 and TNF-α in the presence of Brefeldin A and analyzed via flow cytometry. A Mann-Whitney non-parametric t-test was used to compare control vs other groups (*p<0.05, **p<0.008; n=2-5). […] Representative images for each dataset are shown. TNFI values for TNFα and IFNγ measured using ImageJ to select the nucleus minus background. […]

CD4+ and CD8+ T-cells = test: Flow cytometry, intracellular staining of IFN-γ, IL-2 and TNF-α after PMA/ionomycin
Description: FIG. 5 is a graphical representation showing that dual epigenetic-immunotherapy re-educates and re-programs the T-cell repertoire. A. Cells stimulated with PMA/ionomycin for 4 hours in the presence of Brefeldin A. Cells were surfaced stained with CD45, CD3, CD4, CD8, CD44, CD62L (for naïve, effector and central memory), CD25 and FoxP3 (for Tregs) and analyzed via Flow cytometry. A Mann-Whitney non-parametric t-test was used to compare control vs other groups (*p<0.05, n=2-5). […] Representative images for each dataset are shown. TNFI values for EOMES, TBET and Ki67 measured using Image) to select the nucleus minus background. Graphs represent the % change of expression relative to control group for CD8^+ T-cells. (n>20 individual cells, Group A=Control, Group C: PD1 (10 mg/kg), Group D: Phenelzine (40 mg/kg), Group F: PD1+Phenelzine). C. Cells stimulated with PMA/ionomycin for 4 hours in the presence of Brefeldin A. Cell were surfaced stained with CD45, CD3, CD4, CD8 and intracellular staining of IFN-γ, IL-2 and TNF-α in the presence of Brefeldin A and analyzed via flow cytometry. A Mann-Whitney non-parametric t-test was used to compare control vs other groups (*p<0.05, **p<0.008; n=2-5). […] Representative images for each dataset are shown. TNFI values for TNFα and IFNγ measured using ImageJ to select the nucleus minus background. Graphs represent the % change of expression relative to control group for CD8^+ T-cells. […]
Cells were surfaced stained with CD49b, F4/80 and intracellular stained for IFN-γ, TNF-α and IL-10. To label NK cells and the macrophages (M1/M2) in the tumor microenvironment or a suite of antibodies to label CD8^+ T-Cells (Cells were surfaced stained with CD45, CD3, CD4, CD8, CD44, CD62L (for naïve, effector and central memory). Cells were finally resuspended in PBS 2% FBS and flow cytometry performed on FACS Fortessa (BD) or FACS LSRII (BD). Analysis of data was done using FlowJo® analysis software and % cell populations calculated from the raw data. A Mann-Whitney non-parametric t-test was used to compare control vs other groups.

NNCCc1ccccc1 (racemic) [phenelzine sulfate, (±)-2-phenylethylhydrazine]
expression of ABCB5 (CD133, ALDH1A and ABCB5): strongly inhibited
expression of ALDH1A (CD133, ALDH1A and ABCB5): did not significantly affect
expression of CD133 (CD133, ALDH1A and ABCB5): did not significantly affect
CD8+ central memory and effector memory populations (CD4+/CD8+ T-cells): enhance
IL-2 production by CD4+ T-cells (CD4+ and CD8+ T-cells; CD4+ T-cells): much more efficient
pro-inflammatory/Th1 response (IFN-γ, IL-2 and TNF-α) (CD4+ and CD8+ T-cells; CD4+ and CD8+ T-cells, compared to the control): better pro-inflammatory/Th1 response
production of these cytokines (IFN-γ, IL-2, TNF-α) (CD4+ and CD8+ T-cells; as compared to the control): seems to increase
